According to patent US11098053B2, “Enhanced osteogenic activity of daidzein analogs on human mesenchymal stem cells” (THE ADMINISTRATORS OF THE TULANE EDUCATIONAL FUND, priority 2013, dated 2021):
“Also recorded” adds a separate entry of the source. One block for each compound: values may come before it.

Assays:
BMSCs [1] = test: Osteogenic differentiation of BMSCs (alizarin red); settings: 14 days; for cytotoxicity of BMSCs by bright field microscopy, compared to vehicle / osteogenic differentiation (calcium deposition), fold relative to vehicle-treated BMSCs: estrogen 10 nM, others 1 μM; for osteogenic differentiation (calcium deposition), fold relative to vehicle-treated BMSCs: n=6 donors; for osteogenic potential of BMSCs relative to vehicle, with fulvestrant: 1 μM + 100 nM fulvestrant; for osteogenic potential of BMSCs relative to vehicle, with fulvestrant / osteogenic potential of BMSCs relative to vehicle, inhibitor study, without fulvestrant: FIG. 12
ASCs = test: Osteogenic differentiation of ASCs (alizarin red); settings: 14 days; for cytotoxicity of ASCs by bright field microscopy, compared to vehicle / osteogenic differentiation (calcium deposition), fold relative to vehicle-treated ASCs: estrogen 10 nM, others 1 μM; for osteogenic differentiation (calcium deposition), fold relative to vehicle-treated ASCs: n=6 donors; for osteogenic potential of ASCs relative to vehicle, with fulvestrant: 1 μM + 100 nM fulvestrant; for osteogenic potential of ASCs relative to vehicle, with fulvestrant / osteogenic potential of ASCs relative to vehicle, inhibitor study, without fulvestrant: FIG. 12
[2] = system: Human bone marrow derived mesenchymal stem cells (MSCs); test: Osteogenic differentiation of MSCs (Alizarin Red calcium deposition); settings: for osteogenic differentiation of MSCs, fold relative to vehicle treated MSCs: daidzein 1 μM, genistein 1 μM, Alizarin Red; for osteogenic activity (structure-activity summary, in words): donor MSCs; for osteogenic activity (structure-activity summary, in words) / osteogenesis averaged over all three donors, relative to vehicle treated MSCs / cytotoxicity to donor MSCs: 1 μM; for IC50: read-out: IC50 averaged among the three donors, mean of three donors; for cytotoxicity to donor MSCs: MSCs from three donors (toxic in Donor 2 and Donor 3)
BMSCs [3] = system: BMSCs
[4] = system: MSCs (Sp7, ALP, OP, IGF1 transcripts); test: qRT-PCR of osteogenic transcription factors in MSCs; type: cell-based, human; settings: pooled MSCs, 1 μM, 14 days
Description: . […] The following primer set sequence for was used: Sp7 forward 5′-CCAGTGTCTACACCTCTC-3′ (SEQ ID NO: 1), reverse 5′-ATGGAGTAGGAGTGTTGC-3′ (SEQ ID NO: 2); IGF-1 forward 5′-CTGTGATCTAAGGAGGCTG-3′ (SEQ ID NO: 3), reverse 5′-[…]-3′ (SEQ ID NO: 4); ALP forward 5′-[…]-3′ (SEQ ID NO: 5), reverse 5′-[…]-3′ (SEQ ID NO: 6); osteopontin forward 5′-[…]-3′ (SEQ ID NO: 7), reverse 5′-[…]-3′ (SEQ ID NO: 8). β-actin forward 5′-[…]-3′ (SEQ ID NO: 9), reverse 3′-[…]-5′ (SEQ ID NO: 10) was used as an internal reference point. At the completion of the reaction, ΔΔCt was calculated to quantify mRNA expression.

[5] = Donor 1, estrogen 10 nM, 14 days
[6] = Donor 2, estrogen 10 nM, 14 days
[7] = Donor 3, estrogen 10 nM, 14 days
[8] = screen, MSCs from one donor (Donor 1), analogs and daidzein 1 μM, estrogen 10 nM, 14 days

SMILES: O=c1c(-c2ccc(O)cc2)coc2cc(O)cc(O)c12 [genistein, reference compound]
BMSC donors that did not respond to treatment (BMSCs [1]; 6 donors, 1 μM): 2 of the 6 | cytotoxicity of BMSCs by bright field microscopy, compared to vehicle (BMSCs [1]): did not demonstrate enhanced cytotoxicity | osteogenic differentiation (calcium deposition), fold relative to vehicle-treated BMSCs (BMSCs [1]): 1.4 fold | ASC donors that did not respond to treatment (ASCs; 6 donors, 1 μM): 3 of the 6 | cytotoxicity of ASCs by bright field microscopy, compared to vehicle (ASCs): did not demonstrate enhanced cytotoxicity | osteogenic differentiation (calcium deposition), fold relative to vehicle-treated ASCs (ASCs): 1.4 fold | osteogenic differentiation of MSCs, fold relative to vehicle treated MSCs [2, 5]: 1.6±0.19 fold | osteogenic differentiation of MSCs, fold relative to vehicle treated MSCs [2, 6]: 1.7±0.02 fold | osteogenic differentiation of MSCs, fold relative to vehicle treated MSCs [2, 7]: 1.0±0.15 fold

SMILES: COc1ccc(C(=O)Nc2ccc(OCC(C)C)cc2)c(OC)c1 [12b, N-(4-Isobutoxyphenyl)-2,4-dimethoxybenzamide]
osteogenic activity (structure-activity summary, in words) ([2]; 14 days): not active at all

SMILES: O=c1c(-c2ccc(O)cc2)coc2cc(OCCN3CCCC3)ccc12 [2j, 3-(4-Hydroxyphenyl)-7-(2-(pyrrolidin-1-yl)ethoxy)-4H-chromen-4-one]
osteogenic activity (structure-activity summary, in words) ([2]; 14 days): no osteogenic effect

IC50 ([2]; 14 days): 138 nM
SMILES: C=CCOc1ccc2c(=O)c(-c3ccc(O)cc3)coc2c1 [2l, 7-(Allyloxy)-3-(4-hydroxyphenyl)-4H-chromen-4-one]
cytotoxicity at higher dosages (BMSCs [3]): nor lead to cytotoxicity | osteogenic potential of BMSCs relative to vehicle, with fulvestrant (BMSCs [1]): 1.5 fold | osteogenic potential of BMSCs relative to vehicle, inhibitor study, without fulvestrant (BMSCs [1]; 1 μM): 2.0 fold | osteogenic differentiation (calcium deposition), fold relative to vehicle-treated BMSCs (BMSCs [1]): 1.9 fold | osteogenic potential of ASCs relative to vehicle, with fulvestrant (ASCs): 1.7 fold | osteogenic potential of ASCs relative to vehicle, inhibitor study, without fulvestrant (ASCs; 1 μM): 2.4 fold | osteogenic differentiation (calcium deposition), fold relative to vehicle-treated ASCs (ASCs): 2.2 fold | differentiation at day 7 [2]: enhanced differentiation at day 7 | osteogenic activity (structure-activity summary, in words) ([2]; 14 days): marked enhancement | induction category of osteogenic differentiation (no, low, high induction) [2, 8]: high inducers | osteogenesis averaged over all three donors, relative to vehicle treated MSCs ([2]; 14 days): 2.0±0.18

SMILES: CCCOc1ccc2c(=O)c(-c3ccc(O)cc3)coc2c1 [2d, 3-(4-Hydroxyphenyl)-7-propoxy-4H-chromen-4-one]
cytotoxicity to donor MSCs ([2]; 14 days): cytotoxic; also recorded: toxicity to two donor cells | osteogenic activity (structure-activity summary, in words) ([2]; 14 days): modest osteogenesis

SMILES: CC1(C)C=Cc2cc3c(cc2O1)OCC(c1ccc(O)cc1)C3 (centres unmarked) [compound 10, 4-(8,8-Dimethyl-2,3,4,8-tetrahydropyrano[3,2-g]chromen-3-yl)phenol]
osteogenesis averaged over all three donors, relative to vehicle treated MSCs ([2]; 14 days): 2.2±0.19

melting point: 228 to 230 °C
SMILES: CC1(C)C=Cc2c(ccc3c(=O)c(-c4ccc(B5OC(C)(C)C(C)(C)O5)cc4)coc23)O1 [compound 8, 8,8-dimethyl-3-(4-(4,4,5,5-tetramethyl-1,3,2-dioxaborolan-2-yl)phenyl)pyrano[2,3-f]chromen-4(8H)-one]

SMILES: COc1ccc(C(=O)Nc2ccc(O)cc2)c(OC)c1 [compound 11, N-(4-Hydroxyphenyl)-2,4-dimethoxybenzamide]
osteogenic activity (structure-activity summary, in words) ([2]; 14 days): not active at all

SMILES: CC(C)COc1ccc2c(=O)c(-c3ccc(O)cc3)coc2c1 [2f, 3-(4-Hydroxyphenyl)-7-isobutoxy-4H-chromen-4-one]
differentiation at day 7 [2]: enhanced differentiation at day 7 | IC50 (analog concentration required to achieve 1.5 fold relative bone differentiation) ([2]; donor 3, 1 nM-1 μM, 14 days): 1.38 μM | osteogenic activity (structure-activity summary, in words) ([2]; 14 days): marked enhancement | IC50 ([2]; 14 days): 504 nM | induction category of osteogenic differentiation (no, low, high induction) [2, 8]: high inducers | osteogenesis averaged over all three donors, relative to vehicle treated MSCs ([2]; 14 days): 1.8±0.48

melting point: 176 to 180 °C
SMILES: CC1(C)CCc2c(ccc3c2OCC(c2ccc(O)cc2)C3=O)O1 (centres unmarked) [compound 4, 3-(4-Hydroxyphenyl)-8,8-dimethyl-2,3,9,10-tetrahydropyrano[2,3-f]chromen-4(8H)-one]
osteogenic activity (structure-activity summary, in words) ([2]; 14 days): modest potential

SMILES: CCCCOc1ccc2c(=O)c(-c3ccc(O)cc3)coc2c1 [2e, 7-Butoxy-3-(4-hydroxyphenyl)-4H-chromen-4-one]
osteogenic activity (structure-activity summary, in words) ([2]; 14 days): marked enhancement; also recorded: over two-fold increase | induction category of osteogenic differentiation (no, low, high induction) [2, 8]: high inducers | osteogenesis averaged over all three donors, relative to vehicle treated MSCs ([2]; 14 days): 2.3±0.33

SMILES: CCCCCCOc1ccc2c(=O)c(-c3ccc(O)cc3)coc2c1 [2h, 7-Hexyloxy-3-(4-hydroxyphenyl)-4H-chromen-4-one]
osteogenic activity (structure-activity summary, in words) ([2]; 14 days): marked enhancement | induction category of osteogenic differentiation (no, low, high induction) [2, 8]: high inducers | osteogenesis averaged over all three donors, relative to vehicle treated MSCs ([2]; 14 days): 2.0±0.48

SMILES: O=c1c(-c2ccc(O)cc2)coc2cc(OCCN3CCCCC3)ccc12 [2i, 3-(4-Hydroxyphenyl)-7-(2-(piperidin-1-yl)ethoxy)-4H-chromen-4-one]
cytotoxicity to donor MSCs ([2]; 14 days): cytotoxic; also recorded: potent toxicity to two donors | induction category of osteogenic differentiation (no, low, high induction) [2, 8]: high inducers

SMILES: O=c1c(-c2ccc(O)cc2)coc2cc(O)ccc12 [daidzein, Daidzein]
osteogenic potential of BMSCs relative to vehicle, with fulvestrant (BMSCs [1]): 1.0 fold | osteogenic potential of BMSCs relative to vehicle, inhibitor study, without fulvestrant (BMSCs [1]; 1 μM): 1.7 fold | cytotoxicity of BMSCs by bright field microscopy, compared to vehicle (BMSCs [1]): did not demonstrate enhanced cytotoxicity | osteogenic differentiation (calcium deposition), fold relative to vehicle-treated BMSCs (BMSCs [1]): 1.5 fold | osteogenic potential of ASCs relative to vehicle, with fulvestrant (ASCs): 1.0 fold | osteogenic potential of ASCs relative to vehicle, inhibitor study, without fulvestrant (ASCs; 1 μM): 1.5 fold | cytotoxicity of ASCs by bright field microscopy, compared to vehicle (ASCs): did not demonstrate enhanced cytotoxicity | osteogenic differentiation (calcium deposition), fold relative to vehicle-treated ASCs (ASCs): 1.7 fold | osteogenic differentiation of MSCs, fold relative to vehicle treated MSCs [2, 5]: 1.7±0.19 fold | osteogenic differentiation of MSCs, fold relative to vehicle treated MSCs [2, 6]: 1.7±0.01 fold | osteogenic differentiation of MSCs, fold relative to vehicle treated MSCs [2, 7]: 1.6±0.15 fold | induction category of osteogenic differentiation (no, low, high induction) [2, 8]: low inducers | osteogenic differentiation relative to vehicle treated MSCs in ODM [2, 8]: 1.7±0.3 fold

IC50 ([2]; 14 days): 58.2 nM
SMILES: CC(C)Oc1ccc2c(=O)c(-c3ccc(O)cc3)coc2c1 [2c, 3-(4-Hydroxyphenyl)-7-isopropoxy-4H-chromen-4-one]
ALP expression relative to cells treated with vehicle in ODM [4]: 2.45±0.80 | IGF1 expression relative to cells treated with vehicle in ODM [4]: 26.96±9.19 | OP expression relative to cells treated with vehicle in ODM [4]: 2.68±0.11 | Sp7 expression relative to cells treated with vehicle in ODM [4]: 20.08±4.81 | osteogenic differentiation (calcium deposition), fold relative to vehicle-treated BMSCs (BMSCs [1]): 1.6 fold | osteogenic differentiation (calcium deposition), fold relative to vehicle-treated ASCs (ASCs): 1.7 fold | differentiation at day 7 [2]: enhanced differentiation at day 7 | osteogenic activity (structure-activity summary, in words) ([2]; 14 days): marked enhancement | induction category of osteogenic differentiation (no, low, high induction) [2, 8]: high inducers | osteogenesis averaged over all three donors, relative to vehicle treated MSCs ([2]; 14 days): 2.0±0.41

SMILES: CCCCOc1ccc2c(c1)OCC(c1ccc(O)cc1)C2 (centres unmarked) [compound 9, 4-(7-Butoxychroman-3-yl)phenol]
osteogenic activity (structure-activity summary, in words) ([2]; 14 days): no osteogenic activity

melting point: 262 to 264 °C
SMILES: CC1(C)C=Cc2c(ccc3c(=O)c(-c4ccc(O)cc4)coc23)O1 [compound 3, 3-(4-Hydroxyphenyl)-8,8-dimethyl-8H-pyrano[2,3f]-chromen-4-one]
osteogenic activity (structure-activity summary, in words) ([2]; 14 days): did not exhibit any osteogenic activity

SMILES: COc1ccc2c(=O)c(-c3ccc(O)cc3)coc2c1 [2a, 3-(4-Hydroxyphenyl)-7-methoxy-4H-chromen-4-one]
osteogenic activity (structure-activity summary, in words) ([2]; 14 days): modest osteogenic activity

SMILES: CCOc1ccc2c(=O)c(-c3ccc(O)cc3)coc2c1 [2b, 7-Ethoxy-3-(4-hydroxyphenyl)-4H-chromen-4-one]
osteogenic activity (structure-activity summary, in words) ([2]; 14 days): modest osteogenic activity

SMILES: CN(C)CCOc1ccc2c(=O)c(-c3ccc(O)cc3)coc2c1 [2k, 7-(2-(Dimethylamino)ethoxy)-3-(4-hydroxyphenyl)-4H-chromen-4-one]
osteogenic activity (structure-activity summary, in words) ([2]; 14 days): no osteogenic effect

melting point: 228 to 230 °C
SMILES: C#CCOc1ccc2c(=O)c(-c3ccc(O)cc3)coc2c1 [compound 6, 3-(4-Hydroxyphenyl)-7-(prop-2-yn-1-yloxy)-4H-chromen-4-one]
osteogenic activity (structure-activity summary, in words) ([2]; 14 days): only modest osteogenic potential

SMILES: CC1(C)CCc2c(ccc3c2OCC(c2ccc(O)cc2)C3)O1 (centres unmarked) [compound 5, 4-(8,8-Dimethyl-2,3,4,8,9,10-hexahydropyrano[2,3-f]chromen-3-yl)phenol]
osteogenic activity (structure-activity summary, in words) ([2]; 14 days): no discernible osteogenic activity

SMILES: COc1ccc(NC(=O)c2ccc(OC)cc2OC)cc1 [12a, 2,4-Dimethoxy-N-(4-methoxyphenyl)benzamide]
osteogenic activity (structure-activity summary, in words) ([2]; 14 days): strong osteogenic activity | induction category of osteogenic differentiation (no, low, high induction) [2, 8]: high inducers

SMILES: Cc1cc2c(ccc3c(=O)c(-c4ccc(O)cc4)coc32)o1 [compound 7, 3-(4-hydroxyphenyl)-8-methyl-4H-furo[2,3-h]chromen-4-one]
osteogenic activity (structure-activity summary, in words) ([2]; 14 days): modest potential
